System: rat mesenteric adipocytes
Test: Rate of promoting lipolysis (glycerol quantification in culture supernatant of rat mesenteric adipocytes)
Assay type: cell-based
Settings: for Rate of promoting lipolysis of the combination compared with the value obtained by adding the rates of the single preparations (synergy): combined preparation versus sum of single preparations at corresponding concentration; for Rate of promoting lipolysis (combined preparation (+ lactoferrin 10 ppm)) / Rate of promoting lipolysis (combined preparation (+ lactoferrin 30 ppm)) / Rate of promoting lipolysis (single preparation): 48 hours, additive free group = 0%; for Rate of promoting lipolysis (single preparation): relative glycerol amount
Procedure: Promoting the breakdown of the fat by the composition for promoting the lipolysis of the present invention can be confirmed, for example, by conducting Examples. That is, a sample is added to a precursor adipocyte prepared from rat mesenteric tissue, and glycerol is quantified. A commercially available kit such as F-Kit Glycerol (supplied from Roche, product number: 14820) may be used for the quantification. When the amount of obtained glycerol is larger than the amount of glycerol when the sample was not added, it can be confirmed that the lipolysis was promoted.
Two SD rats (male, 10 weeks of age, Japan SLC, Inc.) were used. The rats were euthanized under anesthesia with ether and anatomized, and mesenteric adipose tissue was removed. The obtained tissue was placed in a sterilized petri dish, immersed in ice-cold saline (Otsuka Normal Saline, supplied from Otsuka Pharmaceutical Co., Ltd.) containing 1% antibiotic (Antibiotic-Antimycotic Stabilized, supplied from Sigma, A5955), and washed to remove blood and hairs, particularly lymphocytes (washed several times with different saline until no hair was visible). The tissue was cut using ophthalmic scissors (cut 25 times per 1 g of the tissue), and dispersed by stirring every several minutes in a PBS solution containing 1 mg/mL of collagenase (Collagenase S-1 derived from Actinomycetes, supplied from Nitta Gelatin Inc.) at 37° C. for 40 minutes. Roughly, the tissue from one rat was treated with 20 mL of the collagenase solution.
The tissue suspension was filtrated through a cell strainer with a pore size of 100 μm (REF352360 supplied from BD Falcon). Subsequently, a viscosity of the suspension was reduced by adding 20 mL of DMEM (Dulbecco's Modified Eagle's Medium-high glucose, D5796 supplied from Sigma), and then the suspension was centrifuged at 800 rpm for 10 minutes. An oil layer in an upper layer was removed using an aspirator, and then, the resulting suspension was resuspended and filtrated through a cell strainer with a pore size of 70 μm (REF352350 supplied from BD Falcon). After centrifuging at 800 rpm for 15 minutes, it was confirmed that there was no suspended cell in a supernatant, the presence of a pellet was confirmed, and then the supernatant was removed. The pellet was suspended in 5 mL of DMEM (serum free), the suspension was centrifuged at 800 rpm for 15 minutes, and then the supernatant was removed.
The resulting pellet was gently suspended in 5 mL of a medium for visceral adipocyte differentiation (Visceral Adipocyte Culture Medium, 250 mL, code: VACMR supplied from Primary Cell Co., Ltd.). The suspension was diluted to 10 times, and the number of cells was counted and was 1.015×10^7 cells/mL. 2.54×10^7 cells could be recovered from one rat. The cells suspended in the medium were placed so as to be at 6×10^6 cells/24-wells and 500 μL/well, and their cultivation was started. On the following day, 500 μL of the medium was added, and subsequently the medium was changed every third day. […]. On the 6th day after the start of the cultivation, the medium was changed to a medium containing each sample. A culture supernatant was collected 48 hours after adding the sample, and the cultivation was terminated. It was visually confirmed that there was no cytotoxicity in all of the cultivations.
A concentration of lactoferrin was adjusted to 30 ppm or 10 ppm, and lactoferrin at each concentration was used as the sample for evaluating the effect of lactoferrin alone (Comparative Experimental example 1). Each ingredient other than lactoferrin was used as the sample for evaluating the effect of a single preparation alone as follows. Lactoferrin and each ingredient other than lactoferrin were adjusted to the following concentrations and mixed to use as the sample for evaluating the effect of a combined preparation (Experimental Examples 1 to 9 and Comparative Experimental Examples 2 to 4). […]

[1] = ingredient 10 ppm + lactoferrin 10 ppm
[2] = ingredient 10 ppm + lactoferrin 30 ppm
[3] = ingredient 30 ppm + lactoferrin 10 ppm
[4] = ingredient 30 ppm + lactoferrin 30 ppm

| Compound | Rate of promoting lipolysis of the combination compared with the value obtained by adding the rates of the single preparations (synergy) | Rate of promoting lipolysis (combined preparation (+ lactoferrin 10 ppm)) [1] | Rate of promoting lipolysis (combined preparation (+ lactoferrin 30 ppm)) [2] | Rate of promoting lipolysis (single preparation) (ingredient 10 ppm alone) | Rate of promoting lipolysis (combined preparation (+ lactoferrin 10 ppm)) [3] | Rate of promoting lipolysis (combined preparation (+ lactoferrin 30 ppm)) [4] | Rate of promoting lipolysis (single preparation) (ingredient 30 ppm alone) | Rate of promoting lipolysis (combined preparation (+ lactoferrin 10 ppm)) (ingredient 10 ppm + lactoferrin 10 ppm, listed as raspberry ketone) | Rate of promoting lipolysis (single preparation) (ingredient 10 ppm alone, listed as raspberry ketone) |
| --- | --- | --- | --- | --- | --- | --- | --- | --- | --- |
| O=C(/C=C/c1ccc(O)c(O)c1)O[C@@H]1C[C@](O)(C(=O)O)C[C@@H](O)[C@H]1O [Chlorogenic acid, chlorogenic acid] | No prominently synergistic effect | 12% | 20% | 3% | 14% | 22% | 5% | – | – |
| O=C(O[C@@H]1Cc2c(O)cc(O)cc2O[C@@H]1c1cc(O)c(O)c(O)c1)c1cc(O)c(O)c(O)c1 [Epigallocatechin gallate, epigallocatechin gallate] | No prominently synergistic effect | 11% | 21% | −6% | 13% | 24% | 3% | – | – |
| CC(=O)CCc1ccc(O)cc1 [Raspberry ketone, 4-(4-hydroxyphenyl)-2-butanone] | – | 22% | 57% | −2% | 34% | 70% | 10% | more excellent effect of promoting the lipolysis than in the case of lactoferrin 10 ppm alone | rather inhibited the lipolysis |
| Lactoferrin | – | – | – | 12.1% | – | – | 21.3% | – | – |
